Test results as given in patent US8058425B2, “Purine derivatives as kinase inhibitors” (Eli Lilly and Company, priority 2002, dated 2011).

What was measured:
female Fischer 344 rats = test: Bone Deposition; format: in vivo, rat; set-up: key: +: hypertrophy and proliferation of osteoblasts with production of osteoid observed; −: hypertrophy and proliferation of osteoblasts with production of osteoid not observed at this dose; conditions: oral gavage daily for 4 days
Experimental: Vehicle or test compound in vehicle (1% Carboxymethylcellulose sodium, 0.25% Polysorbate 80, and 0.05% Dow Corning Antifoam 1510-US in purified water) is administered orally by gavage to female Fischer 344 rats daily for 4 days with three rats in each dosage group. The rats are delivered for necropsy and sections of formalin-fixed, paraffin-embedded bone are examined microscopically to evaluate osteoblast proliferation and deposition of osteoid.
The compounds in the following tables were tested essentially as described above and hypertrophy and proliferation of osteoblasts along surfaces of medullary trabecula and the cortical periosteum accompanied by production of osteoid was observed.
The compound of Example 365 was tested again essentially as described above at 0, 3, 10, and 30 mg/kg with four rats at each dosage level for 21 days. The vertebra and the femur were submitted for analysis of bone mineral density (BMD), bone mineral content (BMC), and cross sectional area following 21 days of daily dosing with the compound of Example 365.

3T3-L1 adipocytes = test: Glycogen Synthesis Assay; format: cell-based; conditions: 0.1 μM
Experimental: The glycogen synthesis assay measures the increase in the production of glycogen both in the absence and in the presence of insulin in the cells. This test is done according to standard protocols. (Berger, J. and Hayes, N. S., Anal. Biochem., 261, 159-163 (1998)). Briefly, 3T3-L1 adipocytes are plated and differentiated in a 96-well plate at 25,000 cells/well. The plate is serum-starved overnight. The serum-starvation media is removed just prior to assay, and the plate is washed with 100 μl/well Krebs-Ringer-Hepes buffer (KRBH). The KRBH is removed and 50 μl of compound (twice the amount of the final concentration) is added to the assay plate. Next, 50 μl of ^14C-labeled glucose is added to the assay plate at 0.1 μCi/well. The plate is then incubated at 37° C. for 2 hours.
The plate is washed with 100 μL/well of PBS, and the cells are lysed with 75 μl/well of 1N NaOH. The plate is heated at 70° C. for 20 minutes. An aliquot (50 μl) of the supernatant is transferred from the assay plate to a Millipore FC filter plate containing 120 μl/well of ice-cold ethanol. The plate is allowed to stand for 2 hours at 4° C. to facilitate precipitation. The ethanol is removed from the filter plate via a vacuum manifold, and the plate is washed with 100 uL/well of ice-cold 70% ethanol. […] The plate was then counted on a Packard Topcount. […]

[1] = target: T1, GSK-3β kinase activity in brain cortex tissue (Mus musculus, UniProt Q9WV60); test: Ex Vivo Brain Assay; format: in vivo; conditions: oral dosing of mice, dose of 20 mg/kg
T1 construct: brain cortex tissue is dissected and homogenized in freshly prepared lysis buffer; from tissue; host or cells: mouse (PDAPP or CD-1) brain cortex, cytosolic homogenate
Experimental: The ex vivo brain assay assesses the GSK-3β kinase activity of the test compound in brain cortex tissue according to standard protocols (Wang, et al., Anal. Biochem., 220, 397-402 (1994)).
The ex vivo GSK-3β kinase activity of a compound is assayed following oral dosing of 2 to 3 month old PDAPP or CD-1 mice. After a 20 mg/kg, 24-hour dose, followed by an additional three-hour dose, brain cortex tissue is dissected and homogenized in freshly prepared lysis buffer (10 mM K2HPO4 pH 7.2, 1 mM EDTA, 5 mM EGTA, 10 mM MgCl2, 50 mM β-Glycerophosphate, 1 mM Na3VO4, 2 mM DTT, 1 μM Microcystin, COMPLETE protease inhibitor tablet, no detergent). Following a thirty-minute incubation on ice, cortex homogenate samples are centrifuged (100,000 G) for 30 minutes at 4° C. (Ahmed, N. N., et al., Oncogene, 8, 1957 […]). The total protein concentration of homogenate is determined using the BCA method (Pierce). GSK-3β activity in cytosolic homogenate from vehicle- and compound-treated mice is then assayed. The kinase reaction occurs in a 50 μl total volume containing 20 mM MOPS pH 7.4, 25 mM β-glycerol phosphate, 5 mM EGTA, 1 mM NA3VO4, 1 mM DTT, 15 mM MgCl2, 100 μM cold ATP, 200 μM CREB peptide, 10 μL cytosolic cortex brain homogenate, and 5 μCi γ-^33P-ATP. […] The following day, the filter plate is read for ^33P on Top Count (Packard). […]

[2] = test system: AG04160C FAD lymphoblast cells; test: Beta-Catenin Protection Assay; format: cell-based, human; conditions: 0.1 μM, 24 hours
Experimental: The beta-catenin assay is the fold induction over basal beta-catenin and is performed according to standard protocols (Hedgepeth, C. M., Dev. Biol., 185, 82-91 (1997); Chen, G., et al., J. Neurochem., 72, 1327-1330 (1999); Hong, M., et al., J. Biol. Chem., 272, 25326-25332 (1997)).
The human familial Alzheimer's disease (FAD) presenilin-1 AG04160C lymphoblast cell line (Coriell Cell Repository, Camden, N.J.) is maintained as a suspension culture in RPMI 1640 (with L-Glutamine) supplemented with 10% fetal bovine serum and 1% penicillin-streptomycin in an atmosphere of 37° C. and 5% CO2. The AG04160C FAD lymphoblast cells are seeded in T-25 cm^2 flasks at 2.5 to 5.0×10^5 cells/ml in a total volume of 10 ml. […] The total protein concentration in whole cell lysate samples is determined using the BCA method (Pierce). Next, 15 μg of sample is loaded on a 10% Bis-Tris NuPage gel and transferred to a pure nitrocellulose membrane followed by β-catenin immunoblot analysis using a (3-catenin specific antibody (Transduction Labs). The β-catenin accumulation/stability is then quantified following densitometry analysis of protein bands (Kodak Digital Science). Final results are reported as fold induction over basal β-catenin. The compound of Example 121 was tested in this assay and induced a 9.8-fold induction of β-catenin at 0.1 μM.

ZDF rats = test: Glucose Lowering Assay; format: in vivo, rat; conditions: oral gavage, dose of 10 mg/kg
Experimental: The glucose lowering assay is an in vivo test that measures the effect of the test compound on blood glucose and triglycerides relative to insulin. (ELDAR-FINKLEMAN, H., et al., Expression and Characterization of Glycogen Synthase Kinase-3 Mutants and Their Effect on Glycogen Synthase Activity in Intact Cells, Proc. Nat. Acad. Sci, 93, 10228-10233 (1996)). Briefly, ZDF rats (Charles River, Inc.) at six weeks of age are housed individually with free access to food and water. Rats are dosed with drug once daily by oral gavage, with the compound prepared as a suspension in 1% caboxymethylcellusolve/0.25% Tween 80 (CMC-Tween). Vehicle controls are dosed with CMC-Tween only. The duration of study varied according to the protocol used, with acute dosing studies lasting one day and dose escalation studies lasting seven days. Body weights and food consumption measurements are also performed once a week for seven-day studies. For measurement of blood glucose and triglycerides, blood samples of 600 μl are collected by the tail snip method. […]

T1 sequence (Q9WV60 whole entry): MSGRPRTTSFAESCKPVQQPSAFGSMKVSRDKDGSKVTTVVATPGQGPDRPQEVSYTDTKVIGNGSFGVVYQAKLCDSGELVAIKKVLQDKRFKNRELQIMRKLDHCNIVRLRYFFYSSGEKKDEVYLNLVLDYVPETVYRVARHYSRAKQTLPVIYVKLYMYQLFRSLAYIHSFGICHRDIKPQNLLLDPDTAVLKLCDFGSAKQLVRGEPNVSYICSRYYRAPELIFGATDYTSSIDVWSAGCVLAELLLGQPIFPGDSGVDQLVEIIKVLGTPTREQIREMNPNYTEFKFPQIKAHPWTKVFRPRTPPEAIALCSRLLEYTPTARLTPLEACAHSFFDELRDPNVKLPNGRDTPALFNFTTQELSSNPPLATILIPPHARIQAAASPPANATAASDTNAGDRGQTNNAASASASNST

Compound	hypertrophy and proliferation of osteoblasts with production of osteoid (female Fischer 344 rats; 50 mg/kg)	hypertrophy and proliferation of osteoblasts with production of osteoid (female Fischer 344 rats; 150 mg/kg)	increase of glycogen synthesis (3T3-L1 adipocytes; in the absence of insulin)	increase of glycogen synthesis (3T3-L1 adipocytes; in the presence of insulin)	inhibition of kinase activity (ex vivo GSK-3β, brain cortex) [1]	fold induction over basal β-catenin [2]	glucose lowering (ZDF rats)
O=C1NC(=O)C(c2cnc3ccccn23)=C1c1cn2c3c(cccc13)CN(c1ncccn1)CC2 [Example 560, 3-(6-(pyrimidin-2-yl)-6,7-dihydro-6H-[1,4]diazepino[6,7,1-hi]indol-1-yl)-4-(imidazo[1,2-a]pyridin-3-yl)pyrrole-2,5-dione]	+	+					
Cl.O=C1NC(=O)C(c2cc(F)cc3ccoc23)=C1c1cn2c3c(cccc13)CNCC2 [Example 121, 3-(6,7-dihydro-6H-[1,4]diazepino[6,7,1-hi]indol-1-yl)-4-(5-fluorobenzofur-7-yl)-2,5-dioxopyrrole hydrochloride]			3.7 fold	6.4 fold	30%	9.8 fold	56%
